Data: US6162798A, “Inhibitor of atherosclerotic intimal thickening” (priority 1991, dated 2000)

Legend:
[1] = tested on: aortic intimal smooth muscle cells (I-SMC); assay: Inhibitory effects on proliferation of aortic intimal smooth muscle cells (cell count); type: cell-based, atherosclerotic Japanese white rabbit; conditions: Oryctolagus cuniculus, fold increase of cell number second to fifth day, read-out: Inhibition (%) Intima; for inhibition at 10 µM: drug concentration 10^-5 M; for inhibition at 1 µM: drug concentration 10^-6 M
Experimental: (§1) The inhibitory effects of the compounds of the present invention on the proliferation of I-SMC and M-SMC were measured by the following methods. […] After twice or three times subculture of cells, the cells in the state of confluency were trypsinized and suspended in the above medium so that the cell density would be 20,000 cells/ml. Then, the 10,000 cells were seeded and cultured on a 24 well multi-well plate. After incubation for 6 hours, the medium was replaced by 0.5 ml of a control medium or a medium containing a test compound. At the same time, the number of cells initially attached to the plate was counted and taken as the initial cell number (I). The test compound was added to the medium as described in Example 1. As the control, DMSO was added alone so that the final concentration would be 0.2%. The medium change was carried out every 2 days, and on the first, second, third, fifth and seventh days, the cells were trypsinized and suspended in Isoton and counted cell number by a Coulter counter. The obtained results were represented by an average number of cells of three wells in each case, and the inhibition (%) of the fold increase of the cell number from the second day to the fifth day was calculated in accordance with the following formula.

[2] = tested on: aortic medial smooth muscle cells (M-SMC); assay: Inhibitory effect on 3H-thymidine uptake in aortic medial smooth muscle cells; type: cell-based, healthy Japanese white rabbit; conditions: Oryctolagus cuniculus, 24 hours with compound, read-out: Inhibition (%) Media; for inhibition at 10 µM: drug concentration 10^-5 M; for inhibition at 1 µM: drug concentration 10^-6 M
Experimental: (§2) The inhibitory effects of the compound of the present invention on ^3 H-thymidine uptake in I-SMC and M-SMC were measured by the following methods. M-SMC and I-SMC are obtained from aortic media of a healthy Japanese white rabbit and from aortic intima of an atherosclerotic Japanese white rabbit as mentioned in Example 2. After three or four times subculture, the cells in the state of confluency were trypsinized and suspended in a DME medium containing 10% of FBS and an antibiotic so that the cell density would be 40,000 cells/ml. The 10,000 cells were seeded to a 48 well multi-well plate. After 4 days culture, the medium was replaced by the control medium or the medium containing a test compound as used in Example 2, and culture was continued for 24 hours. Then, 1 μCi ([…]) of ^3 H-thymidine was added thereto, and culture was continued for 3 hours. The cells were washed three times with a phosphate buffered physiological saline (PBS) and treated with chilled 5% trichloroacetic acid (TCA). The insoluble-fraction was washed with chilled TCA and then dissolved in a 0.5N potassium hydroxide aqueous solution. The ^3 H radioactivity was measured by a liquid scintillation counter and the protein content was measured. […] The inhibition (%) was calculated in accordance with the following formula.

[3] = tested on: aortic medial smooth muscle cells (M-SMC); assay: Inhibitory effects on migration of aortic medial smooth muscle cells (Boyden's chamber); type: cell-based, Sprague Dawley male rat; conditions: migration of rat M-SMC, drug concentration 10^-5 M, 4 hours
Experimental: The inhibitory effects of the compounds of the present invention on migration of M-SMC were measured by the following methods. Arterial medial slices of the thoracic of aorta of a Sprague Dawley male rat were cultured by using a medium of Dulbecco's Modified Eagle (DME) containing 10% fetal bovine serum (FBS) at 37° C. in an atmosphere comprising 95% of air and 5% of carbon dioxide for 3 or 4 weeks. The aortic medial smooth muscle cells grown from the arterial medial slices were subcultured by 1:2 split of cell density for stable subculture. After the three or four times subculture, the cells in the state of confluency were subjected to trypsinized and then suspended in the above medium at a cell density of 500,000 cells per ml. To the cell suspension, a test compound dissolved in dimethylsulfoxide (DMSO) was added so that the final DMSO concentration would be 0.2%, and the cell suspension was pre-incubated at 37° C. for 30 minutes. As a control, DMSO was added alone at the same concentration. In the lower compartment of Boyden's chamber partitioned with a nitrocellulose membrane, 10 ng/ml of a platelet-derived growth factor (PDGF) or DME medium containing a 10% SMC-conditioned DME medium (SMC-CM) obtained from 48 hours conditioning was filled as a migration factor. In the upper compartment thereof, 1 ml of the cell suspension was loaded, and incubation was conducted at 37° C. for 4 hours in a culture condition. As the blank, the DME medium without migration factor was filled in the lower compartment. After 4 hour incubation, the cells adhered to the upper side of the nitrocellulose membrane were removed, and the cells migrated to the lower side of the membrane were fixed and stained by Diff Quik. The number of migrated cells was counted in the 10 fields by a light microscope at 400 x HPF.

[4] = tested on: aortic medial smooth muscle cells (M-SMC); assay: Inhibitory effects on proliferation of aortic medial smooth muscle cells (cell count); type: cell-based, healthy Japanese white rabbit; conditions: Oryctolagus cuniculus, fold increase of cell number second to fifth day, read-out: Inhibition (%) Media; for inhibition at 10 µM: drug concentration 10^-5 M; for inhibition at 1 µM: drug concentration 10^-6 M
Experimental: as §1

[5] = tested on: aortic intimal smooth muscle cells (I-SMC); assay: Inhibitory effect on 3H-thymidine uptake in aortic intimal smooth muscle cells; type: cell-based, atherosclerotic Japanese white rabbit; conditions: Oryctolagus cuniculus, 24 hours with compound, read-out: Inhibition (%) Intima; for inhibition at 10 µM: drug concentration 10^-5 M; for inhibition at 1 µM: drug concentration 10^-6 M
Experimental: as §2

[6] = tested on: J774 macrophages (J774-M.phi.); assay: Inhibitory effects against adhesion of J774 macrophages; type: cell-based; conditions: Mus musculus, 48 hours pretreatment; for inhibition at 10 µM: drug concentration 10^-5 M; for inhibition at 1 µM: drug concentration 10^-6 M
Experimental: The inhibitory effects of the compounds in the present invention on cell adhesion of J774-M.phi. were measured by the following methods. […] Then, culture was continued with a control medium containing 0.2% of DMSO or with a medium containing a test compound for 48 hours as pretreatment. Then, the cells were scraped by means of a rubber policeman and suspended in the above medium. 200,000 cells were seeded to a 24 well multi-well plate., and cultured for 12 hours. After that, the cells attached to the well plates were scraped by a rubber policeman, and the number of cells was counted by a Coulter counter. The obtained results are represented by an average value of the number of cells in three wells at the time of the pretreatment, in each case, and the inhibition (%) on the adhesion was calculated in accordance with the following formula.

leukemic cells (HL-60) = assay: Inhibitory effects against adhesion of leukemic cells (HL-60) induced by TPA; type: cell-based; conditions: Homo sapiens, HL-60, TPA-induced, 48 hours pretreatment; for inhibition at 10 µM: drug concentration 10^-5 M
Experimental: The inhibitory effects of the compounds in the present invention on cell adhesion of HL-60 were measured by the following methods. HL-60 cells were cultured in a RPMI 1640 medium containing 10% of FBS and an antibiotic at 37° C. in an atmosphere comprising 95% of air and 5% of carbon dioxide and then seeded to a 6 well multi-well plate in an amount of 2 ml per well at a cell density of 1,000,000/ml. A test compound dissolved in DMSO was added so that the final DMSO concentration would be 0.2%, and incubation was carried out for 48 hours for pretreatment. Then, 500,000 cells were seeded to a 24 well multi-well plate, and 0.02 mM of phorbol myristate acetate (TPA) dissolved in ethanol, was added in an amount of 1/250 (v/v) of the culture medium, and then culture was continued for 12 hours. After that, the cells were washed with PBS and the cells attached to the well plates were scraped off by trypsinization and suspended in Isoton, and the number of cells were counted by a Coulter counter. A control test was carried out by adding DMSO alone.

[7] = migration factor 10 ng/ml PDGF, read-out: Inhibition (%) PDGF
[8] = migration factor 10% SMC-conditioned medium, read-out: Inhibition (%) SMC-CM

| Compound | inhibition at 10 µM [1] [%] | inhibition at 1 µM [1] [%] | inhibition at 10 µM [2] [%] | inhibition at 1 µM [2] [%] | inhibition at 10 µM [3, 7] [%] | inhibition at 10 µM [3, 8] [%] | inhibition at 10 µM [4] [%] | inhibition at 1 µM [4] [%] | inhibition at 10 µM [5] [%] | inhibition at 1 µM [5] [%] | inhibition at 10 µM [6] [%] | inhibition at 1 µM [6] [%] | inhibition at 10 µM (leukemic cells (HL-60)) [%] | inhibition at 1 µM (leukemic cells (HL-60); drug concentration 10^-6 M) [%] | inhibition at 0.1 µM (leukemic cells (HL-60); drug concentration 10^-7 M) [%] |
| --- | --- | --- | --- | --- | --- | --- | --- | --- | --- | --- | --- | --- | --- | --- | --- |
| Cc1nn(C)c2nc(C3CC3)c(/C=C/[C@@H]3C[C@@H](O)CC(=O)O3)c(-c3ccc(F)cc3)c12 (relative stereo) [Test compound 2, (E)-trans-6-(2'-[6"-cyclopropyl-1',3'-dimethyl-4'-(4'"-fluorophenyl)pyrazolo[3,4-b]pyridin-5"-yl]ethenyl)-4-hydroxy-3,4,5,6-tetrahydro-2H-pyran-2-one] | 98.2 | 84.6 | 88.4 | 36.4 | 98.2 | 32.8 | 86.5 | 4.7 | 91.5 | 11.7 |  |  |  |  |  |
| CCc1c(C)sc2nc(C3CC3)c(/C=C/[C@@H]3C[C@@H](O)CC(=O)O3)c(-c3ccc(F)cc3)c12 (relative stereo) [Test compound 3, (E)-trans-6-(2'-[2'-cyclopropyl-5'-ethyl-3'-(4'"-fluorophenyl)-6'-methylthieno[2,3-b]pyridin-3'-yl]ethenyl)-4-hydroxy-3,4,5,6-tetrahydro-2H-pyran-2-on] | 100 | 100 | 92.2 | 53.6 | 100 | 41.7 | 100 | 31.5 | 94.1 | 69.9 | 92.4 | 92.2 | 96.4 | 92.2 | 4.8 |
| CC[C@H](C)C(=O)O[C@H]1C[C@H](O)C=C2C=C[C@H](C)[C@H](CC[C@@H](O)C[C@@H](O)CC(=O)O)[C@H]21 [Pravastatin, reference compound] | 1.3 | 1.3 | -34.3 | 8.7 | 61.8 | 26.2 | -11.7 | 8.7 | -7.2 | -7 | 41.3 | 40 | -2.8 |  |  |
